Measurements from ChEMBL document CHEMBL4431369, “Synthesis and hypoglycemic activity of 9-O-(lipophilic group substituted) berberine derivatives” (Bioorg Med Chem Lett, 2016).

What was measured:
HepG2 [1] = assay: Hypoglycemic activity in human HepG2 cells assessed as increase in glucose consumption after 48 hrs; assay type: functional, cell-based
HepG2 [2] = assay: Cytotoxicity against human HepG2 cells assessed as reduction in cell viability after 48 hrs by MTT assay; assay type: cell-based; conditions: for IC50: Homo sapiens, HepG2, 48 h; for Activity: human, hepg2, 48 h
HepG2 [3] = assay: Hypoglycemic activity in human HepG2 cells assessed as increase in glucose consumption at 5 ug/ml after 48 hrs relative to control; assay type: functional
HepG2 [4] = assay: Hypoglycemic activity in human HepG2 cells assessed as increase in glucose consumption at 5 ug/ml after 48 hrs relative to BBR; assay type: functional
HepG2 [5] = assay: Cytotoxicity against human HepG2 cells assessed as reduction in cell viability at 125 ug/ml after 48 hrs by MTT assay; assay type: cell-based; conditions: hepg2, 48 h
[6] = Ratio of compound IC50 to BBR IC50 for cytotoxicity against human HepG2 cells; assay type: cell-based; conditions: read-out: Ratio IC50

SMILES	Activity (HepG2 [1])	IC50 (HepG2 [2])	Activity (HepG2 [2])	Activity (HepG2 [3])	Activity (HepG2 [4])	Activity (HepG2 [5])	selectivity ratio [6]
COc1ccc2cc3[n+](cc2c1OC(=O)c1ccccn1)CCc1cc2c(cc1-3)OCO2.[Cl-]	Dose-dependent effect	41.6 µg/mL	Dose-dependent effect	51.7%	4.2%	–	–
CN(C)C(=N)NC(=N)N [METFORMIN]	–	–	–	20%	-17.6%	–	–
COc1ccc2cc3[n+](cc2c1OC(=O)c1ccc(OC(C)=O)cc1)CCc1cc2c(cc1-3)OCO2.[Cl-]	Dose-dependent effect	42.9 µg/mL	Dose-dependent effect	31.7%	-9.6%	–	–
COc1ccc2cc3[n+](cc2c1OC(=O)c1ccccc1[N+](=O)[O-])CCc1cc2c(cc1-3)OCO2.[Cl-]	Dose-dependent effect	46.9 µg/mL	Dose-dependent effect	33.8%	-8.1%	–	–
COc1ccc2cc3[n+](cc2c1OC(=O)/C=C/c1ccccc1)CCc1cc2c(cc1-3)OCO2.[Cl-]	Dose-dependent effect	52.3 µg/mL	Dose-dependent effect	94.5%	33.6%	–	–
COc1cc(/C=C/C(=O)Oc2c(OC)ccc3cc4[n+](cc23)CCc2cc3c(cc2-4)OCO3)ccc1OC(=O)c1cccnc1.[Cl-]	Dose-dependent effect	91.5 µg/mL	Dose-dependent effect	21.8%	-16.3%	Non-Toxic	1.95
COc1ccc2cc3[n+](cc2c1OC(=O)c1cccnc1)CCc1cc2c(cc1-3)OCO2.[Cl-]	Dose-dependent effect	72.1 µg/mL	Dose-dependent effect	45.7%	0%	–	–
COc1ccc2cc3[n+](cc2c1OC)CCc1cc2c(cc1-3)OCO2 [BERBERINE]	–	46.9 µg/mL	Dose-dependent effect	45.6%	–	Toxic	–
COc1ccc2cc3[n+](cc2c1OC(=O)c1ccncc1)CCc1cc2c(cc1-3)OCO2.[Cl-]	Dose-dependent effect	82.5 µg/mL	Dose-dependent effect	30.2%	-10.6%	–	–
COc1cc(/C=C/C(=O)Oc2c(OC)ccc3cc4[n+](cc23)CCc2cc3c(cc2-4)OCO3)ccc1OC(C)=O.[Cl-]	Dose-dependent effect	73.5 µg/mL	Dose-dependent effect	85.5%	27.4%	–	1.57
COc1ccc2cc3[n+](cc2c1OC(=O)c1ccccc1)CCc1cc2c(cc1-3)OCO2.[Cl-]	Dose-dependent effect	65.9 µg/mL	Dose-dependent effect	40%	-3.9%	–	–
COc1ccc2cc3[n+](cc2c1OC(=O)c1cccc([N+](=O)[O-])c1)CCc1cc2c(cc1-3)OCO2.[Cl-]	Dose-dependent effect	27.9 µg/mL	Dose-dependent effect	28%	-12.1%	–	–
COc1ccc2cc3[n+](cc2c1OC(=O)c1ccc([N+](=O)[O-])cc1)CCc1cc2c(cc1-3)OCO2.[Cl-]	Dose-dependent effect	37.9 µg/mL	Dose-dependent effect	22.4%	-15.9%	–	–
